Calls of active or inactive are those of the source.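 How the source made its calls: active means mean half-maximal activating concentration from the dose-response fit at or below a set limit; inactive means the rest.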
What follows are compounds tested against CHO-XBP1 luciferase reporter, IRE1-XBP1 UPR activation (assay: XBP1 luciferase reporter activation – CHO-XBP1 cells, luminescence, counter-screen for apoptotic UPR arm activators, dose response (AID 489040);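 further: reporter read after six hours of compound exposure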).

Compound | EC50
CC1=CC(=O)C(C(C)C)=C/C1=N/OC(=O)c1cccc([N+](=O)[O-])c1 | > 80 µM (inactive)
C/C(=N\NC(=O)c1cc2ccccc2cc1O)c1ccccn1 | > 80 µM (inactive)
O=C1NC(=O)N(c2ccccc2)C(=O)/C1=C\C=C\c1ccccc1 | > 80 µM (inactive)
Cc1ccc2nc(-c3ccc(O)c(O)c3)cn2c1 | > 80 µM (inactive)
Oc1[nH]c2ccc(Br)cc2c1N=NC(=S)N1CCOCC1 | > 80 µM (inactive)
Cc1ccc(Sc2nc(-c3ccccc3)nnc2C(F)(F)F)cc1 | > 80 µM (inactive)
Cc1cc(C)nc(SCc2ccc(C(=O)N/N=C/c3cccc(O)c3O)cc2)n1 | > 80 µM (inactive)
CCc1cccc(CC)c1NC(=O)/C(C#N)=C/c1ccccc1C(F)(F)F | > 80 µM (inactive)
O=C(NC(=S)Nc1ccc(NC(=O)c2cccs2)cc1)c1cc2ccccc2o1 | > 80 µM (inactive)
Nc1c(C(=O)Nc2ccc(S(=O)(=O)N3CCCC3)cc2)sc2nc3ccc(OC(F)(F)F)cc3cc12 | > 80 µM (inactive)
c1ccc(CSC2=NNC(c3ccccn3)S2)cc1 (stereo not drawn) | > 80 µM (inactive)
COCCN=c1scc(-c2cccs2)n1/N=C/c1ccc(O)c(O)c1O | > 80 µM (inactive)
CCOC(=O)C1=C(Cc2ccc(Cl)cc2)C(=O)c2ccccc2C1=O | > 80 µM (inactive)
COc1ccccc1N1CCN(Cc2ccc(O)c3ncccc23)CC1 | > 80 µM (inactive)
Clc1ccc(-c2ccc(/C=N/Nc3nncc(-c4ccccc4)n3)o2)cc1 | inactive
COc1cccc2sc(Nc3nc(-c4ccccn4)cs3)nc12 | > 80 µM (inactive)
CCOc1ccc(-c2nnc(SCC(=O)Nc3ccc4c(c3)c3ccccc3n4CC)n2N)cc1 | > 80 µM (inactive)
CC1(C)CCSC(/C=C/c2ccccc2)=N1 | > 80 µM (inactive)
O=S1(=O)Nc2c(ccc3cccnc23)-c2ccccc21 | > 80 µM (inactive)
Cc1nn(-c2ccccc2)c(C)c1/C=N/NC(=O)CSc1nc2ccccc2c(=O)n1-c1ccc(Br)cc1 | 9.09 µM
Cc1ccc(-c2cc(NC(=O)CCl)n(-c3ccccc3)n2)cc1 | > 80 µM (inactive)
Cc1ccc2cccc(NS(=O)(=O)c3ccccc3)c2n1 | > 80 µM (inactive)
CCOC(=O)c1c(-c2ccc(-c3ccccc3)cc2)csc1NC(=O)CNCCN(C)C | > 80 µM (inactive)
O=C(O)CC1CCC(=C(Cl)Cl)C1 (stereo not drawn) | > 80 µM (inactive)
CC(=O)/C(=N\Nc1ccc(Cl)cc1Cl)Sc1cccc2cccnc12 | > 80 µM (inactive)

Compound | EC50
O=C(CCl)Nc1ccc(-c2ccccc2)cc1 | > 80 µM (inactive)
CC(=O)c1cccc(N=Cc2c(O)c3ccccc3oc2=O)c1 | 15.4 µM
COc1cccc(N=Nc2ccc3cccnc3c2O)c1 | > 80 µM (inactive)
CCOc1ccc(N2C(=O)/C(=C\c3cccs3)C(=O)NC2=S)cc1 | > 80 µM (inactive)
O=C(N/N=C/c1cccc2cccnc12)c1ccccc1O | > 80 µM (inactive)
COc1cc(/C=C(/C#N)c2nc3ccccc3[nH]2)ccc1OCC(=O)Nc1ccccc1C(C)C | > 80 µM (inactive)
O=c1nc(Nc2cccc(Cl)c2)oc2cc(Cl)oc(=O)c12 | > 80 µM (inactive)
CS(=O)(=O)c1nc(-c2ccc(Br)cc2)cc(-c2ccccc2)c1C#N | > 80 µM (inactive)
O=C(N/N=C/c1ccccn1)c1ccc(Cl)c(Cl)c1 | > 80 µM (inactive)
O=C1/C(=C/c2ccc(N3CCOCC3)o2)SC(=Nc2ccccc2)N1CCc1c[nH]c2ccccc12 | > 80 µM (inactive)
O=C1NC(=O)N(Cc2ccccc2Cl)C(=O)/C1=C/c1cccs1 | > 80 µM (inactive)
CCCCC1CCC(C(=O)N(CCCC)c2c(N)n(CCCC)c(=O)[nH]c2=O)CC1 (stereo not drawn) | > 80 µM (inactive)
CC1=NOC(=O)/C1=C/c1ccc(-c2ccc(Cl)cc2)o1 | > 80 µM (inactive)
Cc1cc(C(=O)CCl)c(C)n1CCc1ccccc1 | > 80 µM (inactive)
Cc1ccc(S(=O)(=O)Nc2cccc3cccnc23)c([N+](=O)[O-])c1 | > 80 µM (inactive)
COc1ccc2c(c1)CCc1c(C(=O)Nc3cc(C)n(Cc4ccc(Cl)cc4)n3)noc1-2 | > 80 µM (inactive)
Cc1cc(C(=O)CCl)c(C)n1-c1cccc([N+](=O)[O-])c1 | > 80 µM (inactive)
COc1cccc2sc(Nc3nc(C)c(C(C)=O)s3)nc12 | > 80 µM (inactive)
O=C(Nc1ccc(-c2nc3cc(NC(=O)c4cccs4)ccc3o2)cc1)c1cccs1 | 6.4 µM
COc1ccc(O)c(/C=N/Nc2nc(Nc3ccccc3)nc(-n3nc(C)cc3C)n2)c1 | > 80 µM (inactive)
C[C@@H]1CN([C@H](C)CO)C(=O)c2cc(NC(=O)Nc3ccc(C(F)(F)F)cc3)ccc2O[C@H]1CN(C)Cc1ccc(Cl)c(Cl)c1 | > 80 µM (inactive)
C/C(=N\NC(=O)c1ccc(Cl)c(Cl)c1)c1ccccn1 | > 80 µM (inactive)
O=C(C#Cc1ccccc1)c1cccc([N+](=O)[O-])c1 | > 80 µM (inactive)
CCOc1cccc(C(=O)Nc2cccc(-c3nnc(-c4ccc(C)cc4)o3)c2)c1 | > 80 µM (inactive)
CCc1nnc(NC(=O)CSc2nc(-c3ccccc3)cc(-c3ccc(OC)cc3)c2C#N)s1 | > 80 µM (inactive)

Compound | EC50
C/C(CC(C)(C)C1CCCCC1)=N\NC(N)=S | inactive
CCCCC(CC)CN=C(N)NC(N)=NCCCCCCN=C(N)NC(N)=NCC(CC)CCCC (stereo not drawn) | > 80 µM (inactive)
O=C(Nc1ccc(-c2nc3ncccc3o2)cc1)c1ccc([N+](=O)[O-])o1 | > 80 µM (inactive)
CN(C)CC(C(=O)c1ccccc1)c1ccccc1 (stereo not drawn) | > 80 µM (inactive)
COc1ccc(/C=C/c2ccc3cccc(O)c3n2)c(OC)c1OC | > 80 µM (inactive)
O=C(C#Cc1cccc([N+](=O)[O-])c1)c1ccccc1 | > 80 µM (inactive)
CCOc1ccc2nc(SC3CC(=O)N(c4ccc(C)cc4)C3=O)sc2c1 (stereo not drawn) | > 80 µM (inactive)
Cc1cc(-n2c(C)cc(C(=O)CCl)c2C)no1 | > 80 µM (inactive)
COC(=O)C1=C(C)N(c2ccc(C)c(C)c2)/C(=C/c2ccco2)C1=O | > 80 µM (inactive)
CC(C)c1ccc(N2C(=O)CC(Sc3nc4ccccc4o3)C2=O)cc1 (stereo not drawn) | > 80 µM (inactive)
COC(=O)c1c(NC(=O)CC2Nc3ccccc3NC2=O)sc(C)c1C (stereo not drawn) | > 80 µM (inactive)
Cc1ccc(Sc2ccc(/C=C3/C(=O)NN(c4ccccc4)C3=O)o2)cc1 | > 80 µM (inactive)
CCN(CC)c1ccc(C=C2C(=O)NC(=S)NC2=O)cc1 | > 80 µM (inactive)
COc1ccccc1N=Cc1c(O)c2ccccc2oc1=O | 8.05 µM
CC(C)(C)C(=O)OCc1nc(-c2ccc(O)c(O)c2)cs1 | > 80 µM (inactive)
C=CCN=c1scc(-c2ccco2)n1/N=C/c1ccc(O)c(O)c1O | > 80 µM (inactive)
O=C(COc1ccc(/C=N/NC(=O)c2cc3ccccc3o2)cc1Br)Nc1ccccc1 | 4.66 µM
Oc1ccc(CN2CCC(Cc3ccccc3)CC2)c2cccnc12 | > 80 µM (inactive)
O=S(=O)(Nc1cccc2cccnc12)c1ccc(S(=O)(=O)N2CCCC2)cc1 | > 80 µM (inactive)
Cc1cccc(C)c1NC(=O)c1nc(S(=O)(=O)Cc2ccccc2)ncc1Cl | > 80 µM (inactive)
Cc1ccc(Sc2c([N+](=O)[O-])c(=O)n(C)c3ccccc23)cc1 | > 80 µM (inactive)
Cc1cc(C)c2c(c1)/C(=c1/sc3n(c1=O)CN(c1ccccc1)CN=3)C(=O)N2 | inactive
C=CCn1nc([N+](=O)[O-])nc1Sc1cccc2cccnc12 | > 80 µM (inactive)
CCC(=O)Nc1ccc(C(=O)Cn2ncc(Cl)c(Cl)c2=O)cc1 | > 80 µM (inactive)
Cc1ccc(-c2nc(N/N=C/c3cccc([N+](=O)[O-])c3)c3ccccc3n2)cc1 | > 80 µM (inactive)

Compound | EC50
CC1=CC(C)(C)Nc2ccc(OC(=O)CN3C(=O)CCC3=O)cc21 | > 80 µM (inactive)
CCOC(=O)c1ccc(-c2ccc(/C=N/NC(=O)CN(c3cccc(C)c3)S(C)(=O)=O)o2)cc1 | inactive
Cc1cccc(CS(=O)(=O)c2ncc(Cl)c(C(=O)Nc3ccc(F)cc3)n2)c1 | > 80 µM (inactive)
Cc1ccc(NC(=O)c2ccc([N+](=O)[O-])o2)cc1S(=O)(=O)N1CCOCC1 | > 80 µM (inactive)
Cn1c2ccccc2c2cc(/C=N/NC(=O)c3cc(O)ccc3O)ccc21 | > 80 µM (inactive)
C/C(=N\NC(=O)C(C)Oc1ccc([N+](=O)[O-])cc1)c1ccccn1 (stereo not drawn) | > 80 µM (inactive)
COc1ccc(/C=C2\CN(Cc3ccccc3)C/C(=C\c3ccc(OC)c(O)c3)C2=O)cc1O | > 80 µM (inactive)
O=C(Nc1ccc(NC(=O)c2sc3ccccc3c2Cl)cc1Cl)c1ccco1 | inactive
COc1cc(C(=O)Oc2c(CN3CCOCC3)cc(Cl)c3cccnc23)cc(OC)c1OC | > 80 µM (inactive)
CCOC(=O)C(=Cc1ccc(OCc2ccc([N+](=O)[O-])cc2)c(OC)c1)C(=O)OCC | > 80 µM (inactive)
Cc1nc([N+](=O)[O-])c(Br)n1CC(=O)c1ccc(Cl)cc1 | > 80 µM (inactive)
C/C(=N/NC(=O)c1ccc(C(C)(C)C)cc1)c1ccccn1 | > 80 µM (inactive)
N#C/C(=C\c1ccc([N+](=O)[O-])o1)C(=O)Nc1ccc(F)cc1 | > 80 µM (inactive)
COc1ccc(CC2=CC(=O)c3ccccc3C2=O)cc1 | > 80 µM (inactive)
COc1ccc(C(=O)Cn2c(C(=O)/C=C/c3ccccc3)nc3ccccc32)cc1 | > 80 µM (inactive)
O=C(N/N=C(\c1ccccc1)c1cccnc1)c1cccc(F)c1 | > 80 µM (inactive)
Cc1ccc(S/C=C\C(=O)c2ccccc2)cc1 | > 80 µM (inactive)
C/C(=N\NC(=O)c1ccc(Cl)cc1)c1ccccn1 | > 80 µM (inactive)
S=C(Nc1ccccn1)c1ccccn1 | > 80 µM (inactive)
CC[C@@H](C)[C@H](NC(=O)OC(C)(C)C)c1nnc(S(=O)(=O)Cc2cc(C)ccc2C)o1 | > 80 µM (inactive)
O=C1NC(=O)N(c2ccccc2)C(=O)/C1=C/C=C/c1ccco1 | > 80 µM (inactive)
COc1ccc(-c2nc(-c3ccccc3)nc(Cl)c2C#N)cc1 | inactive
CCOC(=O)c1cnc(Nc2nc3ccccc3o2)nc1CSC(=S)N1CCCCC1 | 9.07 µM
